2 compounds from patent publication US20080234331A1, “Synergistic Insecticidal Mixtures for the Treatment of Seed” (Bayer CropScience AG, priority 2005, published 2008) can be followed below.

Molecules are shown by their SMILES.

The assay concerns Onions cv. Vaquero. As to the kind of experiment: Onion yield after seed treatment with insecticidal active substances. It is filed as in vivo. The settings on record: for Yield in % relative to the insecticide-untreated control 1: onion seed cv. Vaquero pretreated with thiram 2 g ai/kg and carbendazim 1 g ai/kg, seed treatment, total application rate 0.18 mg ai/seed (mixture 0.09 + 0.09); for growth-promoting effect with regard to the yield (in words): onion seed treatment, same total application rate. As for the experimental part:
Onions cv. Vaquero from the Dutch company Nunhems were pretreated uniformly with the fungicidal active substances thiram (2 g ai/kg) and carbendazim (1 g ai/kg) by customary methods. Thereafter, the seed was treated as follows, using insecticidal active substances: • 1. control, no insecticides • 2. Poncho WS 70 (clothianidin) at 0.18 mg ai/seed • 3. Gaucho WS 70 (imidacloprid) at 0.18 mg ai/seed • 4. clothianidin+imidacloprid at 0.09+0.09 mg ai/seed

Consider `CN/C(=N\[N+](=O)[O-])NCc1cnc(Cl)s1` [clothianidin], for which the “Yield in % relative to the insecticide-untreated control 1” value came out at 137% and the “growth-promoting effect with regard to the yield (in words)” value was “growth-promoting effect”.
In the same order, the values of `O=[N+]([O-])/N=C1\NCCN1Cc1ccc(Cl)nc1` [imidacloprid] are 109% and “growth-promoting effect”.
